This assay relates to NCI-H460. Nature of the assay: Cytotoxicity against human H460 cells. The assay is classed as functional, cell-based.

As a reminder, the IC50 is the concentration needed to halve the response being measured.

Take `CC(=O)O[C@@]12CO[C@@H]1C[C@H](O)[C@]1(C)[C@@H]2[C@H](OC(=O)c2ccccc2)[C@]23C[C@H](O)C(C)=C2[C@@]1(O)C(=O)OC3(C)C` [WALLIFOLIOL]: the IC50 came to 68 µM.

Take `CC1=C2[C@]3(O)C(=O)OC(C)(C)[C@]2(C[C@@H]1O)[C@@H](OC(=O)c1ccccc1)[C@@H]1[C@]2(O)CO[C@@H]2C[C@H](O)[C@]13C`: 103 µM corresponded to half-maximal inhibition (IC50).

For the origin of these results see ChEMBL document CHEMBL1166004, “Microbial transformations of the taxan ring of 10-DAB by some strains of the fungus Curvularia lunata: formation of the bis-abeotaxanes wallifoliol and 4-deacylwallifoliol” (J Nat Prod, 2010).
